For 42 molecules, IC50 and fold induction results are on record in patent publication US20150239889A1, “PYRAZOLOPYRIMIDINE COMPOUND” (MITSUBISHI TANABE PHARMA CORPORATION, priority 2012, published 2015).

In general, IC50 refers to the concentration needed to halve the response being measured. Lower therefore signals greater potency.

The target in test [1] is T1, human HIF-PHD3 (Homo sapiens, UniProt Q9H6Z9).
T1 construct: purchased CrystalGenomics Ltd
Description: HIF-PHD inhibition assay (fluorescence polarization), human HIF-PHD3. In kind it is biochemical. The following applies: 2-oxoglutaric acid 166 μmol/L. A digest of the protocol:
(§1)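 Measured signal: mP difference, after versus before enzyme addition, representing enzyme activity. Detection relied on a FAM-tagged, ACA-spaced fluorescent probe.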
A general note: Polarisation of emitted light reports the rotation of a fluorescent probe.

In test [2] the test system is Hep3B cells. Description: EPO production assay (ELISA of culture supernatant). The conditions noted are these: Homo sapiens, 3 μmol/L test compound, 48 hours, relative to control (0.1% DMSO), read-out: EPO production stimulation rate with 3 μmol/L test compound. The test is classed as cell-based. A digest of the protocol: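 Values are fold EPO production at 3 μmol/L compound relative to untreated control, quantified by ELISA of culture supernatant. Hep3B cells were exposed for 48 h in MEM containing 0.5% FBS and 0.1% DMSO.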

The target in test [3] is T2, human HIF-PHD2 (Homo sapiens, UniProt Q9GZT9).
T2 construct: purchased CrystalGenomics Ltd
T2 sequence (Q9GZT9 2-426 limits assumed): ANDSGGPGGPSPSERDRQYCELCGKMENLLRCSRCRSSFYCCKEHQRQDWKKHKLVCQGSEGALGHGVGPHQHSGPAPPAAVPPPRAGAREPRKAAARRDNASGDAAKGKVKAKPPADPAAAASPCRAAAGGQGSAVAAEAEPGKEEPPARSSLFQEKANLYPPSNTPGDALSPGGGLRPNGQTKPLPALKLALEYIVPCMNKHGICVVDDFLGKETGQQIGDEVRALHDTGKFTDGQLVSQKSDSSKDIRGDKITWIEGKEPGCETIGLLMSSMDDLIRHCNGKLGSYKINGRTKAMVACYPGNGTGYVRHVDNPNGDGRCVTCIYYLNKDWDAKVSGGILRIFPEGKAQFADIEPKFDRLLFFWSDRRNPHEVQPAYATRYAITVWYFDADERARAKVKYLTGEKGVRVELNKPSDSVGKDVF
Description: HIF-PHD inhibition assay (fluorescence polarization), human HIF-PHD2. In kind it is biochemical. The conditions noted are these: 2-oxoglutaric acid 3.33 μmol/L. The gist of the method:
as §1

T1 sequence (Q9H6Z9 whole entry): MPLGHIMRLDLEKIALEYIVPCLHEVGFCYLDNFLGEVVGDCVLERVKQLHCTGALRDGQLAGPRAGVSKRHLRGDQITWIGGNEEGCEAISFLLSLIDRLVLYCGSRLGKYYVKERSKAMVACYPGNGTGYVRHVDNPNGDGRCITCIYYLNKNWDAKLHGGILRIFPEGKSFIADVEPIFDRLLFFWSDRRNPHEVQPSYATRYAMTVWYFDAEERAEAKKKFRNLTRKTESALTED

On to `O=C(O)c1cnn(-c2nc(O)c3c(cnn3CCCOc3ccc(Cl)c4c3CCC4)n2)c1` [Example 194], for which the IC50 in test [1] is 53 nM; in test [3], 14 nM. In addition, the fold induction at 3 µM in test [2] was 18.
For `O=C(O)c1cnn(-c2nc(O)c3c(cnn3Cc3cc(C(F)(F)F)cc(Cl)c3F)n2)c1` [Example 4], the IC50 in test [1] stood at 780 nM; in test [3] it was 27 nM. In addition, the fold induction at 3 µM in test [2] came to 1.7.
Consider `O=C(O)c1cnn(-c2nc(O)c3c(cnn3Cc3ccc(-c4ccc(C(F)(F)F)cc4)cc3)n2)c1` [Example 67], for which the IC50 in test [1] amounted to 190 nM; in test [3], 10 nM. Also, the fold induction at 3 µM in test [2] came to 19.
As to `CC(C)(Cc1ccc2ccccc2c1)Cn1ncc2nc(-n3cc(C(=O)O)cn3)nc(O)c21` [Example 133], the values for the IC50 in test [1] and in test [3] were 370 nM and 110 nM, respectively. The fold induction at 3 µM in test [2] is 3.9.
As for `O=C(O)c1cnn(-c2nc(O)c3c(cnn3CC3CCN(c4ccc(C(F)(F)F)cc4)CC3)n2)c1` [Example 170], the IC50 was 280 nM in test [1] and 19 nM in test [3]. The fold induction at 3 µM in test [2] is 19.
`O=C(O)c1cnn(-c2nc(O)c3c(cnn3CC3CCN(c4ccc(C(F)(F)F)cn4)CC3)n2)c1` [Example 171]: the IC50 in test [1] worked out at 160 nM; in test [3] it was 14 nM. Besides, the fold induction at 3 µM in test [2] worked out at 11.
As to `C[C@H]1CC[C@H](Cn2nc(Cl)c3nc(-n4cc(C(=O)O)cn4)nc(O)c32)CC1` [Example 223], the values for the IC50 in test [1] and in test [3] were 950 nM and 28 nM, respectively. Further, the fold induction at 3 µM in test [2] was found to be 3.2.
With `COc1ccc(Cn2cc3nc(-n4cc(C(=O)O)cn4)nc(O)c3n2)cc1` [Example 236], the IC50 in test [1] came to 77 nM; in test [3], 11 nM. The fold induction at 3 µM in test [2] came out at 0.91.
On to `CC(C)(Cn1ncc2nc(-n3cc(C(=O)O)cn3)nc(O)c21)Oc1cccc2ccccc12` [Example 212], for which the IC50 in test [1] was 310 nM; in test [3], 26 nM. Moreover, the fold induction at 3 µM in test [2] is 2.7.
The matching figures for `O=C(O)c1cnn(-c2nc(O)c3c(cnn3CC3(COc4ccc(Cl)cc4)CC3)n2)c1` [Example 198]: 1200 nM, 89 nM and 3.2.
Take `O=C(O)c1cnn(-c2nc(O)c3c(cnn3Cc3ccc(-c4ccccc4F)cc3)n2)c1` [Example 56]: the IC50 in test [1] was 260 nM; in test [3], 16 nM. Further, the fold induction at 3 µM in test [2] worked out at 19.
In the same order, the values of `O=C(O)c1cnn(-c2nc(O)c3c(cnn3Cc3ccc(-c4ccccc4F)cc3F)n2)c1` [Example 80] are 42 nM, 8.9 nM and 9.5.
As to `O=C(O)c1cnn(-c2nc(O)c3c(cnn3Cc3cccc(-c4ccc(F)cc4)c3)n2)c1` [Example 40], the IC50 turned out to be 140 nM in test [1] and 11 nM in test [3]. Further, the fold induction at 3 µM in test [2] amounted to 5.
For the molecule `O=C(O)c1cnn(-c2nc(O)c3c(cnn3Cc3ccc(-c4ccccc4Cl)cc3)n2)c1` [Example 62], the figures for the IC50 in test [1] and in test [3] were 140 nM and 17 nM, respectively. Further, in test [2], the fold induction at 3 µM stood at 12.
Regarding `O=C(O)c1cnn(-c2nc(O)c3c(cnn3Cc3ccc4cc(F)ccc4c3)n2)c1` [Example 32], the IC50 in test [1] stood at 320 nM; in test [3], 14 nM. In test [2], the fold induction at 3 µM amounted to 5.7.
`O=C(O)c1cnn(-c2nc(O)c3c(cnn3CC34CC5CC(CC(C5)C3)C4)n2)c1` [Example 381]: the figures for the IC50 in test [1] and in test [3] were 500 nM and 46 nM, respectively. Moreover, the fold induction at 3 µM in test [2] was 6.3.
In the same order, the values of `Cc1nn(C[C@H]2CC[C@H](C(F)(F)F)CC2)c2c(O)nc(-n3cc(C(=O)O)cn3)nc12` [Example 474] are 190 nM, 30 nM and 2.8.
In the same order, the values of `COc1ccc(-c2cccc(Cn3ncc4nc(-n5cc(C(=O)O)cn5)nc(O)c43)c2)cc1` [Example 42] are 1400 nM, 14 nM and 9.1.
As to `CC[C@H]1CC[C@H](Cn2ncc3nc(-n4cc(C(=O)O)cn4)nc(O)c32)CC1` [Example 140], the figures for the IC50 in test [1] and in test [3] were 830 nM and 14 nM, respectively. Also, in test [2], the fold induction at 3 µM worked out at 6.2.
`O=C(O)c1cnn(-c2nc(O)c3c(cnn3Cc3cc(-c4ccccc4)ccc3F)n2)c1` [Example 49]: the IC50 in test [1] came out at 200 nM; in test [3] it was 30 nM. In addition, in test [2], the fold induction at 3 µM turned out to be 7.6.
The matching figures for `O=C(O)c1cnn(-c2nc(O)c3c(cnn3Cc3ccc(F)c(C(F)(F)F)c3)n2)c1` [Example 12]: more than 3000 nM, 44 nM and 2.3.
Turning to `O=C(O)c1cnn(-c2nc(O)c3c(cnn3Cc3ccc4c(c3)CCCC4)n2)c1` [Example 36], the IC50 in test [1] is 170 nM; in test [3], 15 nM. Besides, the fold induction at 3 µM in test [2] turned out to be 1.4.
For `O=C(O)c1cnn(-c2nc(O)c3nn(Cc4cc(C(F)(F)F)cc(Cl)c4F)cc3n2)c1` [Example 238], the figures for the IC50 in test [1] and in test [3] were 770 nM and 10 nM, respectively. Besides, the fold induction at 3 µM in test [2] was 0.7.
Take `O=C(O)c1cnn(-c2nc(O)c3c(cnn3Cc3ccc(-c4ccccc4F)cc3C(F)(F)F)n2)c1` [Example 89]: the IC50 came out at 1300 nM in test [1] and 48 nM in test [3]. In test [2], the fold induction at 3 µM is 16.
`C[C@@H](c1ccc(C(F)(F)F)cc1)n1nc(Cl)c2nc(-n3cc(C(=O)O)cn3)nc(O)c21` [Example 443]: the IC50 in test [1] is 250 nM; in test [3], 16 nM. In test [2], the fold induction at 3 µM is 2.9.
`O=C(O)c1cnn(-c2nc(O)c3nn(C(c4ccc(Cl)cc4)c4ccc(Cl)cc4)cc3n2)c1` [Example 239]: the IC50 in test [1] came to 99 nM; in test [3] it was 5.5 nM. Also, the fold induction at 3 µM in test [2] worked out at 1.4.
The matching figures for `CCC(c1ccc(C(F)(F)F)cc1)n1ncc2nc(-n3cc(C(=O)O)cn3)nc(O)c21` (stereo not drawn) [Example 326]: 360 nM, 53 nM and 7.7.
Consider `CC(C)(Cn1ncc2nc(-n3cc(C(=O)O)cn3)nc(O)c21)c1ccc2ccccc2c1` [Example 118], for which the IC50 amounted to 320 nM in test [1] and 45 nM in test [3]. Further, the fold induction at 3 µM in test [2] is 17.
In the same order, the values of `CC(C)(C)[C@H]1CC[C@H](Cn2ncc3nc(-n4cc(C(=O)O)cn4)nc(O)c32)CC1` [Example 142] are 360 nM, 25 nM and 15.
`CC(C)[C@H]1CC[C@H](Cn2nc(Cl)c3nc(-n4cc(C(=O)O)cn4)nc(O)c32)CC1` [Example 224]: the figures for the IC50 in test [1] and in test [3] were 91 nM and 11 nM, respectively. For the same molecule, in test [2], the fold induction at 3 µM was determined as 8.4.
The matching figures for `C[C@H]1CC[C@H](Cn2ncc3nc(-n4cc(C(=O)O)cn4)nc(O)c32)CC1` [Example 139]: 520 nM, 30 nM and 1.6.
With `O=C(O)c1cnn(-c2nc(O)c3c(cnn3CCCOc3cccc(C(F)(F)F)c3)n2)c1` [Example 174], the IC50 in test [1] worked out at 570 nM; in test [3], 32 nM. The fold induction at 3 µM in test [2] is 9.9.
In the same order, the values of `CCC(c1ccc(Cl)cc1)n1ncc2nc(-n3cc(C(=O)O)cn3)nc(O)c21` (single isomer, unassigned) [Example 323] are 300 nM, 22 nM and 3.8.
In the same order, the values of `Cc1ccc(C(C(C)C)n2ncc3nc(-n4cc(C(=O)O)cn4)nc(O)c32)cc1` (single isomer, unassigned) [Example 26] are 1500 nM, 66 nM and 3.4.
Turning to `O=C(O)c1cnn(-c2nc(O)c3c(cnn3C[C@H]3CC[C@H](c4ccccc4)CC3)n2)c1` [Example 155], the IC50 in test [1] turned out to be 70 nM; in test [3], 10 nM. Moreover, in test [2], the fold induction at 3 µM is 11.
In the same order, the values of `O=C(O)c1cnn(-c2nc(O)c3c(cnn3CCc3ccc(-c4ccccc4)cc3)n2)c1` [Example 130] are 130 nM, 6 nM and 19.
In the same order, the values of `COc1cc(Cn2ncc3nc(-n4cc(C(=O)O)cn4)nc(O)c32)ccc1-c1ccccc1F` [Example 96] are 110 nM, 13 nM and 6.8.
The matching figures for `O=C(O)c1cnn(-c2nc(O)c3c(cnn3Cc3ccc(-c4cc(C(F)(F)F)ccc4F)nc3)n2)c1` [Example 105]: 110 nM, 12 nM and 9.5.
In the case of `O=C(O)c1cnn(-c2nc(O)c3c(cnn3Cc3ccc(-c4c(F)cccc4F)cc3F)n2)c1` [Example 81], the half-maximal inhibitory concentration (IC50) in test [1] came out at 170 nM; in test [3] it was 35 nM. For the same molecule, the fold induction at 3 µM in test [2] was 5.4.
The matching figures for `C[C@@H](c1ccc2ccccc2c1)n1ncc2nc(-n3cc(C(=O)O)cn3)nc(O)c21` [Example 31]: 270 nM, 13 nM and 4.7.
With `O=C(O)c1cnn(-c2nc(O)c3c(cnn3Cc3ccc(-c4ccccc4)cc3F)n2)c1` [Example 78], the IC50 in test [1] is 68 nM; in test [3] it was 6.1 nM. Further, the fold induction at 3 µM in test [2] is 30.
Take `O=C(O)c1cnn(-c2nc(O)c3c(cnn3Cc3ccc(-c4ccccc4C(F)(F)F)cc3)n2)c1` [Example 61]: the figures for the IC50 in test [1] and in test [3] were 180 nM and 12 nM, respectively. Besides, the fold induction at 3 µM in test [2] was 6.
